Consider 11 compounds from patent EP3095787A1, “[…] ACTIVE COMPOUNDS AS DAG-LIPASE INHIBITORS” (Universiteit Leiden, priority 2015, dated 2016).

Test [1] concerns the target T1, FAAH (Mus musculus, UniProt O08914).
T1 construct: For gel based ABPP experiments mouse brain proteome (2.0 mg/mL, 20 µL) was preincubated; from tissue; host or cells: mouse brain proteome
T1 sequence (O08914 1-579): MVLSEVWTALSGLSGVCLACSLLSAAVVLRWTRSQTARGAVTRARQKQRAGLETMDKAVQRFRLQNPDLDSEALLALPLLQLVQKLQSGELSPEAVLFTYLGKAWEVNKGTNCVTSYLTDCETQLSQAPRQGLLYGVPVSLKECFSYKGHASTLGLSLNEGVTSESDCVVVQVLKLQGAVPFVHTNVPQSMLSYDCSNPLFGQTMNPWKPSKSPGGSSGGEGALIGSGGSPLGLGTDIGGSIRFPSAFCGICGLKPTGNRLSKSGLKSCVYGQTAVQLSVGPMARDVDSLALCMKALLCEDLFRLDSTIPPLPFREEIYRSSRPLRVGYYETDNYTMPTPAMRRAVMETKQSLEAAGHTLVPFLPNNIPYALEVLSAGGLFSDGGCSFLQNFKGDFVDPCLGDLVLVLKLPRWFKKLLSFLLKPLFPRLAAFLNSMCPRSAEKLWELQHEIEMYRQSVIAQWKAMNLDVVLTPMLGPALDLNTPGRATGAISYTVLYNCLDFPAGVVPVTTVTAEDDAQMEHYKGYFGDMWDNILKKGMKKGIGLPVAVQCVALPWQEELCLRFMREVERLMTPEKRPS
The test is described as follows: Gel based competitive ABPP selectivity assay with TAMRA-FP in mouse brain proteome (FAAH band). Type of test: biochemical. As to conditions: 10 µM inhibitor; TAMRA-FP 500 nM; mouse brain proteome; vehicle set to 100%. As to the method:
(§1) For gel based ABPP experiments mouse brain proteome (2.0 mg/mL, 20 µL) was preincubated for 30 min with vehicle (DMSO) or compound to be tested in 0.5 µL DMSO at rt. And subsequently treated with 500 nM (final concentration) TAMRA-FP (TAMRA-FP was bought at Thermo Fischer) for 15 minutes at rt. The reactions were quenched with 10 µL standard 3 x SDS page sample buffer. The samples were directly loaded and resolved on SDS page gel (10 % acrylamide). The gels were scanned with a ChemiDoc MP sytem (Biorad, Cy 3 settings, 605/50 filter) and analyzed using Image Lab 4.1.
The percentage effect on FAAH was determined by measuring the integrated optical intensity of the band corresponding to FAAH (∼ 63 kD for mouse) using Image lab software. This activity was corrected for the total protein loading per lane as determined by coomassie staining and imaging with a ChemiDoc™ MP sytem (Biorad) followed by determination of the integrated optical intensity per lane by using Image Lab 4.1 software. The intensity of the protein bands from the samples treated with vehicle was set to 100%. […] N/A means less than 50% probe displacement at 10 µM inhibitor concentration.

For test [2], the target named is T2, hDAGL-α (Homo sapiens, UniProt Q9Y4D2).
T2 sequence (Q9Y4D2 1-1042): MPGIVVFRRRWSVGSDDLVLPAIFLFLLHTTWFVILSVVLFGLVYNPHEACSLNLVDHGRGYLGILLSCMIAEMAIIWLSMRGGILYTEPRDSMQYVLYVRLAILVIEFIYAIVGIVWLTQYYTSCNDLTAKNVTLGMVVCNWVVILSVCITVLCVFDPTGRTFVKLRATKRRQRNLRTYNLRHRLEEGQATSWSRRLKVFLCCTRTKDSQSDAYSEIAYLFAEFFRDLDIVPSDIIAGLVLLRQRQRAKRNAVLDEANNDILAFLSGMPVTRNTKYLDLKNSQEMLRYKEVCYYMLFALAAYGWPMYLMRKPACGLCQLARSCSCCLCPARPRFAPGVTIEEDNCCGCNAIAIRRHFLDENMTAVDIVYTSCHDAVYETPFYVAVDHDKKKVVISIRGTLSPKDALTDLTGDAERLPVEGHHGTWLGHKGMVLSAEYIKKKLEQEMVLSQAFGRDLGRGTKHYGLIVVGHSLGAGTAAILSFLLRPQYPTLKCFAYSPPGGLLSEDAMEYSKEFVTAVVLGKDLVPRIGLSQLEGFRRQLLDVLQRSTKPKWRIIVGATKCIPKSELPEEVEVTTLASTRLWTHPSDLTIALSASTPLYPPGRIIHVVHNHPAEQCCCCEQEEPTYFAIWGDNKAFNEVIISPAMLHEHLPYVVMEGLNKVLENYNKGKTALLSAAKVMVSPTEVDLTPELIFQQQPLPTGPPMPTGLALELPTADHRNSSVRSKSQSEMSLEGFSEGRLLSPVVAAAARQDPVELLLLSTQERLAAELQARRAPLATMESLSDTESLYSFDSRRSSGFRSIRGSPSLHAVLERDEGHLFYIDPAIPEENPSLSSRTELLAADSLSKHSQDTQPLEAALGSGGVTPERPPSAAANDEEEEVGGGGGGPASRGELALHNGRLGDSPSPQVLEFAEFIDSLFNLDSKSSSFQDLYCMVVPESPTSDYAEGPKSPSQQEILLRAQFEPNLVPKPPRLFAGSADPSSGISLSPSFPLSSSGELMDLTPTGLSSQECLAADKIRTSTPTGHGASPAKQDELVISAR
Kind of test: Biochemical hDAGL-α activity assay (PNP-butyrate hydrolysis, 96 well plate). More on the design: expressed in transfected cells; host or cells: HEK293T (transient), membrane fraction. As to conditions: PNP-butyrate 0.3 mM, membranes of HEK293T cells transfected with hDAGL-α; for IC50: read-out: DAGL-α Activity assay pIC50 (converted). As to the method: The biochemical hDAGL-α activity assay is based on the hydrolysis of para-nitrophenylbutyrate (PNP-butyrate) by membrane preparations from HEK293T cells transiently transfected with hDAGL-α. 200 µL reactions were performed in flat bottom Greiner 96-wells plates in a 50 mM pH 7.2 Hepes buffer. Membrane protein fractions from HEK293T cells transiently transfected with hDAGL-α (0.05 µg/µL final concentration) were used as hDAGL-α source. Compounds to be tested were introduced in 5 µL DMSO. The mixtures were incubated for 30 minutes before 5.0 µL 12 mM PNP-butyrate (final concentration 0.3 mM) in DMSO was added (final DMSO concentration 5.0%). Kinetics were followed immediately after addition of PNP-butyrate on a plate reader (TECAN GENios® microplate reader), by measuring the OD420 every 60 seconds, for 20 minutes at 37°C. The slope of the linear region from 5-15 minutes was determined, and all experiments were performed at N = 2, n = 2 for experimental measurements and N = 2, n = 4 for controls.
Data analysis: Z'-factor of each plate was determined for the validation of each experiment, using the following formula Z' = 1-3(σpc + σnc)/(µpc - µnc). The slope from 5-15 minutes of the positive control (pc: hDAGL-α, DMSO), and the negative control (nc: Mock, DMSO) was used. Plates were accepted for further analysis when Z' > 0.6. Kinetic measurements were corrected for the average absorption of the negative control (mock, DMSO). The slope of the linear region from 5-15 minutes was determined. The average, standard deviation (SD) and standard error of mean (SEM) were calculated and normalized to the corrected positive control. Data was exported to Graphpad Prism 5.0 for the calculation of the pIC50 using a nonlinear dose-response analysis.

Test [3] concerns the target T2, hDAGL-α. The test is described as follows: Mode of action (reversibility) experiment: size exclusion chromatography, then MB064 labeling. The class given is biochemical. Further details: expressed in transfected cells. As to conditions: pre-incubation at IC80 concentration; remaining activity visualized with MB064; n=3. The method, then:
To determine the mode of action (reversible versus irreversible) of the inventive compounds, an experiment in which human DAGL-α membranes were pre-incubated at the IC80 concentration of compound 25 or the irreversible DAGL inhibitor KT-109 was performed.

Test [4] deals with serine hydrolases. The test is described as follows: Comparative and competitive gel ABPP selectivity in mouse brain membrane proteome (TAMRA-FP and MB064). The class given is biochemical. As to conditions: 1 µM; including ABHD6 and ABHD12. As to the method: as §1
To investigate the selectivity of compound 25 in the mouse brain proteome comparative and competitive ABPP was used with a broad-spectrum FP-based probe (TAMRA-FP) and the tailored DAGL-α ABP MB064. As a reference the widely used β-lactone-based DAGL-inhibitors THL and OMDM-188, two broad-spectrum covalent and irreversible serine hydrolase inhibitors, were firstly tested.

With “1-(4-fluoro-6-(2-fluorophenyl)benzo[d]oxazol-2-yl)-6-phenylhexan-1-one [Compound 31]”, the “FAAH ABPP (10 µm) % Eff.” value in test [1] is reported as “N/A (N/A means less than 50% probe displacement at 10 µM inhibitor concentration)”. In addition, the “DAGL-α Activity assay pIC50” value in test [2] is 8.6.

`Cc1ccc(-c2cnc3nc(C(=O)CCc4ccccc4Oc4ccccc4)oc3c2)cc1` [Compound 26, 3-(2-phenoxyphenyl)-1-(6-(p-tolyl)oxazolo[4,5-b]pyridin-2-yl)propan-1-one]: the “FAAH ABPP (10 µm) % Eff.” value in test [1] is “N/A (N/A means less than 50% probe displacement at 10 µM inhibitor concentration)”. In test [2], the IC50 is 8.32 nM.

With `Cc1ccc(-c2cnc3nc(C(=O)CCc4cccc(Oc5ccccc5)c4)oc3c2)cc1` [Compound 27, 3-(3-Phenoxyphenyl)-1-(6-(p-tolyl)oxazolo[4,5-b]pyridin-2-yl)propan-1-one], the “FAAH ABPP (10 µm) % Eff.” value in test [1] was “N/A (N/A means less than 50% probe displacement at 10 µM inhibitor concentration)”. For the same compound, the IC50 in test [2] was 3.72 nM.

Consider `Cc1ccc(-c2cnc3nc(C(=O)CCc4ccc(Oc5ccccc5)cc4)oc3c2)cc1` [Compound 28, 3-(4-phenoxyphenyl)-1-(6-(p-tolyl)oxazolo[4,5-b]pyridin-2-yl)propan-1-one], for which, in test [1], the “FAAH ABPP (10 µm) % Eff.” value was “N/A (N/A means less than 50% probe displacement at 10 µM inhibitor concentration)”. Further, the IC50 in test [2] is 5.13 nM.

Regarding `Cc1ccc(-c2cnc3nc(C(=O)CCc4ccc(Oc5ccc(C(F)(F)F)cn5)cc4)oc3c2)cc1` [Compound 29, 1-(6-(p-Tolyl)oxazolo[4,5-b]pyridin-2-yl)-3-(4-((5-(trifluoromethyl)pyridin-2-yl)oxy)phenyl)propan-1-one], the “FAAH ABPP (10 µm) % Eff.” value in test [1] is “N/A (N/A means less than 50% probe displacement at 10 µM inhibitor concentration)”. Moreover, the IC50 in test [2] was 0.851 nM.

Consider `O=C(CCCCCc1ccccc1)c1nc2c(F)cc(-c3ccc(F)cc3)cc2o1` [Compound 30, 1-(4-fluoro-6-(4-fluorophenyl)benzo[d]oxazol-2-yl)-6-phenylhexan-1-one], for which the “FAAH ABPP (10 µm) % Eff.” value in test [1] is reported as “N/A (N/A means less than 50% probe displacement at 10 µM inhibitor concentration)”. In test [2], the IC50 is 5.01 nM.

For `Cc1ccc(-c2cc(F)c3nc(C(=O)CCCCCc4ccccc4)oc3c2)cc1` [Compound 32, 1-(4-fluoro-6-(p-tolyl)benzo[d]oxazol-2-yl)-6-phenylhexan-1-one], in test [1], the “FAAH ABPP (10 µm) % Eff.” value is “N/A (N/A means less than 50% probe displacement at 10 µM inhibitor concentration)”. Further, the IC50 in test [2] is 1.41 nM.

For `Cc1ccccc1-c1cc(F)c2nc(C(=O)CCCCCc3ccccc3)oc2c1` [Compound 33, 1-(4-fluoro-6-(o-tolyl)benzo[d]oxazol-2-yl)-6-phenylhexan-1-one], in test [1], the “FAAH ABPP (10 µm) % Eff.” value is given as “N/A (N/A means less than 50% probe displacement at 10 µM inhibitor concentration)”. Also, in test [2], the IC50 was 1.32 nM.

Turning to `O=C(N1CCCCC1Cc1ccccc1)n1cc(-c2ccc(-c3ccccc3)cc2)nn1` (stereo not shown) [KT-109, reference compound], the “recovery of DAGL-α activity after size exclusion chromatography” value in test [3] is given as “No recovery of DAGL-α activity”.

In the case of `CCCCCCCCCCC[C@@H](C[C@@H]1OC(=O)[C@H]1CCCCCC)OC(=O)[C@@H](NC=O)[C@@H](C)CC` [OMDM-188, reference compound], in test [4], the “number of serine hydrolases whose labeling is blocked” value is listed as “at least 4”.

In the case of `CCCCCCCCCCC[C@@H](C[C@@H]1OC(=O)[C@H]1CCCCCC)OC(=O)[C@H](CC(C)C)NC=O` [THL, Tetrahydrolipstatin, reference compound], the “number of serine hydrolases whose labeling is blocked” value in test [4] was “at least 4”.
